Patent publication EP1611112B1, “ISOXAZOLE COMPOUNDS AS INHIBITORS OF HEAT SHOCK PROTEINS” (Vernalis (Cambridge) Limited, priority 2003, dated 2004)
Structures can show the parent of a compound that is named as a salt.

Molecular target: T1, human full-length HSP90 (Homo sapiens, UniProt P08238)
T1 construct: E. coli expressed human full-length HSP90 protein; made in house; host or cells: E. coli
Experiment: Fluorescence Polarisation Assay (displacement of fluorescein-labelled probe RBT0045864-FAM)
Format: binding
Excerpt: A Fluorescence Polarization_assay was also employed for the evaluation of some of the compounds of the Examples:
Fluorescence polarization {also known as fluorescence anisotropy} measures the rotation of a fluorescing species in solution, where the larger molecule the more polarized the fluorescence emission.
When the fluorophore is excited with polarized light, the emitted light is also polarized. The molecular size is proportional to the polarization of the fluorescence emission.
Test compound is added to the assay plate, left to equilibrate and the anisotropy measured again. Any change in anisotropy is due to competitive binding of compound to HSP90, thereby releasing probe.
Stored at room temperature. • 3) BSA (bovine serum albumen) 10 mg/ml (New England Biolabs # B9001S) • 4) 20 mM probe in 100 % DMSO stock concentration. Stored in the dark at RT. Working concentration is 200 nM diluted in AR water and stored at 4 °C.
1) Add 100µl 1x buffer to wells 11A and 12A (=FP BLNK) 2) Prepare assay mix - all reagents are kept on ice with a lid on the bucket as the probe is light-sensitive.
This gives 2.5 mM {50x} stock cpd - assuming cpds 20 mM. • 4) Repeat for wells A2 to A10. Control in columns 11 and 12. • 5) Transfer 5 µl from row A to row B- not column 12. Mix well. • 6) Transfer 5 µl from row B to row C. […] Add 2 µl of 100mM standard cpd to wells B12 - H12 {is positive control } • 13)The Z' factor is calculated from zero controls and positive wells.

[1] = table names no assay, parent examples tested in fluorescence polarization assay
[2] = Fluorescence Polarisation Assay, activity range

T1 sequence (P08238 whole entry): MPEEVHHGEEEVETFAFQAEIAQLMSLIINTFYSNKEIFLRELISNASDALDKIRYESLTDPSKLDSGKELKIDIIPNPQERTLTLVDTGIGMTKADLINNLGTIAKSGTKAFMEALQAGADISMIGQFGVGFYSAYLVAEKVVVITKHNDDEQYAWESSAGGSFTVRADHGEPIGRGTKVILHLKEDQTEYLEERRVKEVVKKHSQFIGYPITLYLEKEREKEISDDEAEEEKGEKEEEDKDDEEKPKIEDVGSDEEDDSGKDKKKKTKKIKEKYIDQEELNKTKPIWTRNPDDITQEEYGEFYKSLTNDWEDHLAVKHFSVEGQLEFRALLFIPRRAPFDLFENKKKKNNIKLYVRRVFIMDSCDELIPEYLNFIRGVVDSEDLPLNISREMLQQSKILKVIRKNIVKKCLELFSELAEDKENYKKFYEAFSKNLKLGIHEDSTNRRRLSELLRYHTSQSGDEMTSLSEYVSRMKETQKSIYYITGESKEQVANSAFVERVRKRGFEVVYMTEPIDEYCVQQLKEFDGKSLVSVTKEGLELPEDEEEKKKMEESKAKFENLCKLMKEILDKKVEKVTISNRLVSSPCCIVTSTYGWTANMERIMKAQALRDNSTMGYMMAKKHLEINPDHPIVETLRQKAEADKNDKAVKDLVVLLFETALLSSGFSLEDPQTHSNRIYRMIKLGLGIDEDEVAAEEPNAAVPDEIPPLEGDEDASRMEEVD

Structure (SMILES) | IC50 [1] | IC50 [2]
CCNC(=O)c1noc(-c2cc(C(C)C)c(O)cc2O)c1-c1ccc(CN2CCC(N)CC2)cc1 [Example 78af] | < 10 µM | 
CCNC(=O)c1noc(-c2cc(-c3ccc(F)cc3)c(O)cc2O)c1-c1ccc(F)cc1 [Example 71] |  | < 10 µM
CCNC(=O)c1noc(-c2cc(Cl)c(O)cc2O)c1-c1ccc(F)c(CN2CCOCC2)c1 [Example 64] |  | < 10 µM
CCNC(=O)c1noc(-c2cc(Cl)c(O)cc2O)c1-c1ccc(CN2CCCCC2)c2ccccc12 [Example 41r] |  | < 10 µM
CCNC(=O)c1noc(-c2cc(C(C)C)c(O)cc2O)c1-c1ccc(CN2CCC(F)(F)CC2)cc1 [Example 78ac] | < 10 µM | 
CCNC(=O)c1noc(-c2cc(Cl)c(O)cc2O)c1-c1ccc(C(C)N2CCOCC2)cc1 (stereo not drawn) [Example 42] |  | < 10 µM
CCNC(=O)c1noc(-c2cc(-c3ccccc3C)c(O)cc2O)c1-c1ccc(CN2CCCCC2)cc1 [Example 75m] | < 10 µM | 
CCNC(=O)c1noc(-c2cc(Cl)c(O)cc2O)c1-c1cccc(CN2CCOCC2)c1 [Example 45] |  | < 10 µM
CCNC(=O)c1noc(-c2cc(-c3c(C)noc3C)c(O)cc2O)c1-c1ccc(CN2CCCCC2)cc1 [Example 75v] | < 10 µM | 
Cc1noc(-c2cc(Cl)c(O)cc2O)c1-c1cccc(CN2CCOCC2)c1 [Example 28, 4-Chloro-6-[3-methyl-4-(3-morpholin-4-ylmethyl-phenyl)-isoxazol-5-yl]-benzene-1,3-diol] |  | < 10 µM
CCNC(=O)c1noc(-c2cc(Cl)c(O)cc2O)c1-c1ccc(CN2CCOCC2)c(F)c1 [Example 41g] |  | < 10 µM
Cc1noc(-c2cc(Cl)c(O)cc2O)c1-c1cccc(CN2CCC(C(N)=O)CC2)c1 [Example 29, 1-{3-[5-(5-Chloro-2,4-dihydroxy-phenyl)-3-methyl-isoxazol-4-yl]-benzyl}-piperidine-4-carboxylic acid amide] |  | < 10 µM
CCNC(=O)c1noc(-c2cc(C(C)C)c(O)cc2O)c1-c1ccc(CNCCOC)cc1 [Example 78m] | < 10 µM | 
CCNC(=O)c1noc(-c2cc(CCc3cccc(F)c3)c(O)cc2O)c1-c1ccc(CN(CC)CC)cc1 [Example 75h] | < 10 µM | 
CCNC(=O)c1noc(-c2cc(Cl)c(O)cc2O)c1-c1ccc(CN2CCCCC2)cc1C [Example 41i] |  | < 10 µM
CCNC(=O)c1noc(-c2cc(Cl)c(O)cc2O)c1-c1ccc(CNCc2cccnc2)cc1 [Example 58] |  | < 10 µM
COc1ccc(-c2c(-c3cc(Br)c(O)cc3O)noc2C)cc1 [Example 76, 4-Bromo-6-[4-(4-methoxy-phenyl)-5-methyl-isoxazol-3-yl]-benzene-1,3-diol] |  | < 10 µM
CCNC(=O)c1noc(-c2cc(C(C)(C)C)c(O)cc2O)c1-c1ccc(F)cc1 [Example 77e] | < 10 µM | 
CCNC(=O)c1noc(-c2cc(CC)c(O)cc2O)c1-c1ccc(CN2CCCCC2)cc1 [Example 56] |  | < 10 µM
CCNC(=O)c1onc(-c2cc(Cl)c(O)cc2O)c1-c1ccc(OC)cc1 [Example 76B] | < 10 µM | 
CCN(CC)Cc1ccc(-c2c(C(=O)NC(C)C)noc2-c2cc(C(C)C)c(O)cc2O)cc1 [Example 78u] | < 10 µM | 

Structure (SMILES) | IC50 [1] | IC50 [2]
CCNC(=O)c1noc(-c2cc(CCc3ccc(F)cc3)c(O)cc2O)c1-c1ccc(CN2CCCCC2)cc1 [Example 69] |  | < 10 µM
CCNC(=O)c1noc(-c2cc(Cl)c(O)cc2O)c1Br [Example 27a] |  | < 10 µM
CCNC(=O)c1noc(-c2cc(Cl)c(O)cc2O)c1-c1ccc(CN(C)C)cc1 [Example 59] |  | < 10 µM
CCNC(=O)c1noc(-c2cc(Cl)c(O)cc2O)c1-c1ccc(F)c(CN2CCN(C(C)=O)CC2)c1 [Example 63] |  | < 10 µM
CC(C)NC(=O)c1noc(-c2cc(C(C)C)c(O)cc2O)c1-c1ccc(CNC2CCCCC2)cc1 [Example 78w] | < 10 µM | 
CCNC(=O)c1noc(-c2cc(C(C)(C)C)c(O)cc2O)c1-c1ccc(CN2CCCCC2)cc1 [Example 77c] | < 10 µM | 
CCNC(=O)c1noc(-c2cc(-c3ccccc3C)c(O)cc2O)c1-c1ccc(CN2CCN(C)CC2)cc1 [Example 75s] | < 10 µM | 
CCNC(=O)c1noc(-c2cc(Cl)c(O)cc2O)c1-c1ccc(F)cc1 [Example 27] |  | < 10 µM
CCNC(=O)c1noc(-c2cc(Cl)c(O)cc2O)c1-c1cccc(CN2CCN(C)CC2)c1 [Example 48] |  | < 10 µM
CCNC(=O)CNCc1ccc(-c2c(C(=O)NCC)noc2-c2cc(C(C)C)c(O)cc2O)cc1 [Example 78ah] | < 10 µM | 
CCNC(=O)c1noc(-c2cc(-c3ccc(F)cc3)c(O)cc2O)c1-c1ccc(CN(CC)CC)cc1 [Example 75r] | < 10 µM | 
CCNC(=O)c1noc(-c2cc(-c3ccccc3F)c(O)cc2O)c1-c1ccc(CN2CCN(C)CC2)cc1 [Example 75g] | < 10 µM | 
CCNC(=O)c1noc(-c2cc(CCc3ccccc3)c(O)cc2O)c1-c1ccc(CN2CCOCC2)cc1 [Example 65, 5-(2,4-dihydroxy-5-phenethyl-phenyl)-4-(4-morpholin-4-ylmethylphenyl)-isoxazole-3-carboxylic acid ethylamide hydrochloride] |  | < 10 µM
CCNC(=O)c1noc(-c2cc(C(C)C)c(O)cc2O)c1-c1ccc(CN(CC)CC)cc1 [Example 78b] | < 10 µM | 
CCNC(=O)c1noc(-c2cc(C(C)C)c(O)cc2O)c1-c1ccc(CNC(C)(C)C)cc1 [Example 78l] | < 10 µM | 
CCNC(=O)c1noc(-c2cc(CCc3cccc(C)c3)c(O)cc2O)c1-c1ccc(CN2CCCCC2)cc1 [Example 75a] | < 10 µM | 
CCNC(=O)c1noc(-c2cc(C(C)C)c(O)cc2O)c1-c1ccc(CNCC(F)(F)F)cc1 [Example 78ab] | < 10 µM | 
CCNC(=O)c1noc(-c2cc(C(C)(C)C)c(O)cc2O)c1-c1ccc(CN2CCN(C)CC2)cc1 [Example 77d] | < 10 µM | 
CCNC(=O)c1noc(-c2cc(Cl)c(O)cc2O)c1-c1ccc(OCCN(CC)CC)cc1 [Example 41q] |  | < 10 µM
CCNC(=O)c1noc(-c2cc(Cl)c(O)cc2O)c1-c1ccc(CN(CC)CC)cc1 [Example 49] |  | < 10 µM
CCNC(=O)c1noc(-c2cc(Cl)c(O)cc2O)c1-c1ccc(OC)cc1 [Example 25, 5-(5-chloro-2,4-dihydroxyphenyl)-4-(4-methoxy-phenyl)-isoxazole-3-carboxylic acid ethylamide] |  | < 10 µM

Structure (SMILES) | IC50 [1] | IC50 [2]
CCNC(=O)c1noc(-c2cc(Cl)c(O)cc2O)c1-c1ccc(CO)cc1 [Example 41n] |  | < 10 µM
CCNC(=O)c1noc(-c2cc(CCc3cccc(C)c3)c(O)cc2O)c1-c1ccc(CN2CCOCC2)cc1 [Example 75c] | < 10 µM | 
CCNC(=O)c1noc(-c2cc(Cl)c(O)cc2O)c1-c1ccc2ncccc2c1 [Example 33] |  | < 10 µM
CCNC(=O)c1noc(-c2cc(C(C)C)c(O)cc2O)c1-c1ccc(CNC(C)C)cc1 [Example 78e] | < 10 µM | 
CCNC(=O)c1noc(-c2cc(Cl)c(O)cc2O)c1-c1ccccc1CN1CCN(C)CC1 [Example 41s] |  | < 10 µM
Cc1nc(-c2c(-c3ccc(O)cc3O)noc2C(F)(F)F)cs1 [Example 76A] |  | > 10 µM
CCNC(=O)c1noc(-c2cc(Cl)c(O)cc2O)c1-c1cccc2ccccc12 [Example 35] |  | < 10 µM
CC(C)NC(=O)c1noc(-c2cc(C(C)C)c(O)cc2O)c1-c1ccc(CN2CCN(C)CC2)cc1 [Example 78t] | < 10 µM | 
NC(=O)c1noc(-c2cc(Cl)c(O)cc2O)c1-c1ccc(CN2CCCCC2)cc1 [Example 41h] |  | < 10 µM
CCNC(=O)c1noc(-c2cc(-c3ccccc3)c(O)cc2O)c1-c1ccc(CN(CC)CC)cc1 [Example 75p] | < 10 µM | 
CCNC(=O)c1noc(-c2cc(Cl)c(O)cc2O)c1-c1ccc(N2CCNCC2)cc1 [Example 26] |  | < 10 µM
CCNC(=O)c1noc(-c2cc(Cl)c(O)cc2O)c1-c1ccc(CN2CCOCC2)cc1 [Example 41, 5-(5-Chloro-2,4-dihydroxy-phenyl)-4-(4-morpholin-4-ylmethyl-phenyl)-isoxazole-3-carboxylic acid ethylamide] |  | < 10 µM
CCNC(=O)c1noc(-c2cc(C(C)C)c(O)cc2O)c1-c1ccc(CN2CCN(C)CC2)cc1 [Example 78c] | < 10 µM | 
CCNC(=O)c1noc(-c2cc(Cl)c(O)cc2O)c1-c1ccc(CN2CCOCC2)cc1C [Example 41j] |  | < 10 µM
CNC(=O)c1noc(-c2cc(Cl)c(O)cc2O)c1-c1ccc(CN2CCCCC2)cc1 [Example 41c] |  | < 10 µM
CC(C)NC(=O)c1noc(-c2cc(C(C)C)c(O)cc2O)c1-c1ccc(CNC(C)(C)C)cc1 [Example 78z] | < 10 µM | 
CCNC(=O)c1noc(-c2cc(Cl)c(O)cc2O)c1-c1ccc(F)cc1F [Example 41e] |  | < 10 µM
CCNC(=O)c1noc(-c2cc(CC)c(O)cc2O)c1-c1ccc(CN(CC)CC)cc1 [Example 41b] |  | < 10 µM
CC(C)NC(=O)c1noc(-c2cc(C(C)C)c(O)cc2O)c1-c1ccc(CN2CCC(F)(F)CC2)cc1 [Example 78aa] | < 10 µM | 
CCNC(=O)c1noc(-c2cc(-c3ccccc3F)c(O)cc2O)c1-c1ccc(CN2CCCCC2)cc1 [Example 75d] | < 10 µM | 
CCNC(=O)c1noc(-c2cc(Cl)c(O)cc2O)c1-c1cccc(CN2CCN(C(C)=O)CC2)c1 [Example 62] |  | < 10 µM
